Measurements from the OligoGym collection.
These antisense oligonucleotides have a phosphorothioate backbone; sugars and methylation of C are not fully specified.

biological target: E2F1; conditions: ASO
Further: test concentration or dose not given here.

Sequence | remaining target (mRNA or protein) (fraction of control)
GAACTCCTCAGGGAGGAGGC | 0.59
GACCACAGGGTCTGGGCTGG | 0.62
GAGGAGGCCGGAGAAGTCCT | 0.75
GAGGCCTCGATAAATAAATA | 0.94
GAGTCGGCCGCCACCAGCGG | 0.27
GATTCTGGGAGCAGGCACTG | 0.79
GCAGGCGCTTCAGACACTGC | 0.3
GCCACTGGATGTGGTTCTTG | 0.94
GCCAGGCGCTGGCTGTCAGT | 0.69
GCCCACTGCTCTCGGCCAGG | 0.4
GCCGACGCCCACTGTGGTGT | 0.45
GCCTTGTGGGACCCCACGAG | 0.83
GCGGCCCGGGTGACAGGCGG | 0.32
GCTCCAGGCTGAGTAGAGAC | 0.73
GGACTCATGCACACACATGT | 0.16
GGACTTCTTGGCAATGAGCT | 0.65
GGAGGACGGCCAGGGACAGG | 0.7
GGCCATGACGCTCACGGCCC | 0.76
GGCCGAAAGTGCAGTTAGAG | ≥ 1
GGCCGCGGCGCACTGGGTGT | 0.79
GGCTGCCCATCCGGGACAAC | 0.53
GGCTTGCTCAGCCTCCTAGC | 0.17
GGGAGATGATGGTGGTGGTG | ≥ 1

Sequence | remaining target (mRNA or protein) (fraction of control)
GGGCCGGTGGGAGCCGGCGG | 0.37
GGTATAAATTAAATGTTTCC | 0.62
GGTCCAGCCTCCGCTTCACC | 0.36
GGTCCCTCCAAGCCCTGTCA | 0.2
GGTCCTGGGTCAACCCCTCA | 0.62
GTGACACTATGGTGGCAGAG | 0.75
GTGGTCAGATTCAGTGAGGT | 0.43
GTGTGGGTGTAGGCTGCATG | 0.76
TACTCTGGAAACCCTGGTCC | 0.75
TAGCCAGACCCCAGAGCTAG | 0.46
TATTAAAACCAAAGCAGGAG | 0.69
TCAGCCGAGTGGCTCAGCAG | 0.91
TCCTGCAGCTGTCGGAGGTC | 0.8
TCTGCGAGGAGTCGAGCAGC | 0.79
TGAAAGTTCTCCGAAGAGTC | 0.56
TGCACACACAGAGGTGTATG | 0.27
TGGAGAGGGCCCACCCCACC | 0.62
TGGCAGAGTCAGTGGCCCTG | 0.94
TGTTAGGAAGCAAATCAAAG | 0.74
TTGCTGATTCCCCAGGCTCA | 0.36
TTTAACGTCATCAAAATATT | 0.93
TTTGATCACCATAACCATCT | 0.08

biological target: GNAS; conditions: ASO

Sequence | remaining target (mRNA or protein) (fraction of control)
ACACACGGCGGATGTTCTCA | 0.42
ACACGGCGGATGTTCTCAGT | 0.39
ACGGCGGATGTTCTCAGTGT | 0.71
ACTGAAAGTGAGAGGGAACT | ≥ 1
AGCGCAGGTGAAATGAGGGT | ≥ 1
AGGTGAAATGAGGGTAGCAG | ≥ 1
AGTGAGAGGGAACTTTTGTG | 0.41
ATATTTATTTCATTTGTTTC | 0.61
ATGTTCTCAGTGTCCACAGC | 0.58
ATTTATTTCATTTGTTTCTT | ≥ 1
ATTTCATTTGTTTCTTTTAT | 0.76
ATTTGGAACATCTAAGCAAG | 0.66
ATTTGTTTGCTGCTGCTGTT | 0.81

biological target: GNA13; conditions: ASO

Sequence | remaining target (mRNA or protein) (fraction of control)
AAAAGATATTAAAACAGC | ≥ 1
AAAGTCGTATTCATGGAT | ≥ 1
AACAGATCAAAGCCTGCA | 0.64
AAGCAAGTCTGTCTTGTT | 0.79
AAGCATTTTGAAAGGAAC | ≥ 1
AAGGTGGACTTGCCGCTC | 0.24
AATATTTTACAGATTCAC | ≥ 1
AATTCTGGTTGTAAACTG | ≥ 1
ACCCAGTTGAAATTCTCG | 0.43
ACCCTCATACCTTTGATC | 0.09
ACGACATCATCTTATCTC | 0.39
ACTAAGATTTTCAAGAAG | 0.61
ACTCGTCAGCAGGCAGCC | ≥ 1
AGAACAGAATTATGGAGA | 0.31
AGCACACGGACAGCACGG | 0.51
AGCAGCAGGATCTTCACC | 0.54
AGTCCGCCATCTTGCCGC | ≥ 1
AGTGGTGAAGTGGTGGTA | 0.43
ATATGAAGCTTCTCTCGA | 0.42
ATATTGTAAGAAAACCCT | ≥ 1
ATGTTCTCCGTGTTGATA | 0.67
CAAATCTTGGCGATGAGT | 0.31
CAATTTGCACCTTCTCCT | 0.29
CACACGGACAGCACGGAC | 0.77
CACTTGAGGAAACAAGGA | 0.38
CAGCTTTCAGCCACAAAC | 0.99
CATAAGCACCTGGTCAAA | 0.1

Sequence | remaining target (mRNA or protein) (fraction of control)
CATAGGTCTTTTCCCGAG | 0.52
CATCTGCTTCAGGAAGGT | 0.55
CATCTTGCCGCCGCCGCC | 0.99
CCCGTGGATGATCCGCAT | ≥ 1
CCGCCGCCTCGCCGCCTC | 0.33
CCGCTGTCTGCCCATAAT | 0.08
CCTTGTTTCCACCATTCC | 0.07
CGAGACAGGCATTTGTCG | ≥ 1
CGATTGGTCAGTCGATCT | ≥ 1
CGCCTCGCCGCCTCTCCG | 0.75
CGCGCCCAGCAGCAGGAT | 0.75
CGGACCGCGACGGCAGGA | 0.58
CGGTCATAGGCATTCTGT | 0.66
CGTAGAATTAAGATTGTT | ≥ 1
CGTTTGTTCCGGAAACAT | 0.76
CTCCATGTTGTTGGTTTG | 0.46
CTTGCGTTGCTGCTCGGC | 0.36
CTTTTCCCGAGACAGGCA | 0.08
GAAAACCCTTGTTTCCAC | 0.33
GAAATAGTCTTTGATGCT | 0.61
GACAGGCATTTGTCGATC | ≥ 1
GACCGCGACGGCAGGAAG | ≥ 1
GAGCATCAACCAGCACCC | 0.11
GATCTCCTTGGACTTGCG | 0.33
GCAAGCAGAATATCTTGT | 0.5
GCCCGGGTATCAAACGAC | 0.26
GCCGCCGCCGCCGCCTCG | ≥ 1

Sequence | remaining target (mRNA or protein) (fraction of control)
GCCTCGCCACTCGTCAGC | 0.5
GCGCTGGTCGAAGTCCTG | 0.7
GCTGAAAACCCGGTTATT | 0.65
GGATCCCCTTCAAATTCT | 0.72
GTCGATCTCCTTGGACTT | 0.65
GTTGTGATGGAATATAAT | ≥ 1
GTTTCCTTTCTGATCTCT | 0.35
TAAGGGCTTCTGTTGCTG | 0.55
TATCCAAGTTATCCAGGA | 0.48
TATCCTTCACGTCGCGGA | ≥ 1
TATTGATGTCACACTGTC | 0.48
TCACCAGCCGCTTCACAT | 0.23
TCACGTTGCTGTAGATGG | ≥ 1
TCGAAACATTCAAACCAA | 0.42
TCGAAGTCCTGCCCGTGG | ≥ 1
TCGCCCGCGCCCAGCAGC | 0.31
TCTGACCACCTACATCAA | 0.2
TCTGGTTCTCCAAGTTTA | 0.25
TCTTATAGCAGGAAGATA | ≥ 1
TGAGTTGTCTCCCCAGGG | ≥ 1
TGCCTTTGGTGGGTCTTC | 0.51
TGCTCGGCCTCGCCACTC | 0.52
TGTTCAGAGACTCTGTAA | 0.47
TTGAGGTTGTCATGCAGA | 0.73
TTGTACATCACTGTAGCA | 0.41
TTGTTGGTTTGAGTTGTC | ≥ 1
